Data from patent US20170181971A1, “Nanoparticle- and Drug-Containing Polymersomes for Medical Applications” (Northeastern University, priority 2014, published 2017).

Test system: ampicillin-resistant E. coli
Experiment: Bacterial growth curve (OD600 for 24 hours) after treatment
Assay type: cell-based
Description: Bacteria transformation. First, an overnight suspension of E. coli cells (strain K-12 HB101; Bio-Rad, Hercules, Calif.) was pelleted by centrifugation and re-suspended in 250 μL of cold 50 mM calcium chloride (Sigma-Aldrich, St. Louis, Mo.) and placed in an ice bath. After 15 minutes on ice, 10 μg of the plasmid DNA was added, and the cells were returned to the ice bath for an additional 15 minutes. The cells were then heat shocked by placing them in a 42° C. water bath for exactly 45 seconds and then rapidly transferring them back to the ice bath for 2 minutes. This solution was then mixed with 750 μL of Lysogeny broth (LB, Sigma-Aldrich, St. Louis, Mo.). Finally, the complete transformed bacteria solution was streaked for inoculation on a LBagar plate containing 100 μg mL−1 of ampicillin and allowed to incubate overnight at 37° C.
Bacterial interactions. For each experimental trial, a single bacterial colony was selected and grown overnight in LB on a shaking incubator set at 200 rpm and 37° C. […] 100 μL of the bacterial suspension was then combined with varying AgPs treatment concentrations or controls in a 96 well plate. The final treatment volume in each well was brought up to 100 μL using 0.01 M PBS (e.g. 100 μL treatment +0 μL PBS, 90 μL treatment+10 μL PBS, 80 μL treatment+20 μL PBS, etc.). Control treatments were given 100 μL of PBS to keep the media dilution consistent. […]

CC1(C)S[C@@H]2[C@H](NC(=O)[C@H](N)c3ccccc3)C(=O)N2[C@H]1C(=O)O [free ampicillin, ampicillin]
bacteriostatic action (delay in time to reach exponential growth phase) (10^6 CFU mL^−1, OD600 for 24 hours): no bacteriostatic effect
difference in bacterial growth between control treatments (incl. PBS) (ampicillin at 200 μg mL^−1, FIG. 7G): no significant differences
